{
  "source": "patent US20250171744A1",
  "about": "“METHODS OF REPROGRAMMING SOMATIC CELLS AND MATERIALS RELATED THERETO” (CITY OF HOPE, priority 2019, published 2025)",
  "tested_on": "FPGS^ko cells",
  "assay": "Chemical complementation (nutrient supplementation) of FPGS mutants (FIG. 14)",
  "assay_type": "cell-based, human",
  "protocol": "The growth medium was supplemented with 1 and 2× essential amino acids (EAAs), and cells were grown for […] (A2-A3). Additionally, to check the growth behavior of the mutant in a different basal medium, regular DMEM and IMDM with 1×NEAAs were tested. To rescue the phenotype of FPGS^ko, 5-CHO-THF (1 mM) with sodium hypoxanthine (10 mM) and thymidine (1.6 mM) mixture (HT; Thermo Fisher Scientific) was exogenously applied to IMDM, respectively (A5, A6), and compared with the FPGS^ko cells (A1) and WT cells […] grown with only solvent as a control. […] All the experiments were carried out in triplicate and cell proliferation was measured using a Cellometer. The number of cells for each cell line is compared with the number of colonies for parental 293T cells. Error bars indicate means±SE (n=4). *P<0.05, **P<0.001.\nChemical complementation assays of FPGS mutants: Cells were maintained as monolayers in DMEM with Gluta-Max (Corning) supplemented with 10% FBS at 37° C. in a 5% CO2 atmosphere. To supplement the growth medium with amino acids, 1× and 2× doses of essential amino acids (Thermo Fisher Scientific) were added in the medium and the cells were grown as previously described for 5 days. […] All the experiments were carried out in triplicate, and cell proliferation was measured using a Cellometer Auto T4 Counting Chamber (Nexcelom Bioscience, Lawrence, MA, USA). […]",
  "data": [
    {"smiles": "Nc1nc2c(c(=O)[nH]1)N(C=O)[C@@H](CNc1ccc(C(=O)N[C@@H](CCC(=O)O)C(=O)O)cc1)CN2", "note": "[5-CHO-THF, 6S-5-formyl-5,6,7,8-tetrahydrofolic acid]", "values": [
      {"measurement": "cell growth of FPGS^ko mutant", "setting": "IMDM supplemented with 1 mM 5-CHO-THF and 1×NEAAs", "value": "substantial increases in cell growth"},
      {"measurement": "growth rate of FPGS^ko mutant", "setting": "IMDM with 1 mM 5-CHO-THF, 1×NEAAs, hypoxanthine (10 mM) and thymidine (1.6 mM)", "value": "almost full restoration of growth rate"}
    ]}
  ]
}
